Earlier results on one substance are cited in patent publication US20090005297A1 (priority 2004, published 2009).

For this series the following is noted: nonspecific PEGylation at amine groups with one or two 5 kDa PEG.

Regarding “variant aprotinin (T11 D, K15R, R17L, I18H, I19L, V34Y, R39L, K46E): variant aprotinin nonspecifically PEGylated at amine groups with one or two 5 kDa PEG (Stassen 1995)”, the in vivo effectiveness result was “not improved”.
